Key:
[1] = biological target: T1, Mitogen-activated protein kinase kinase kinase 6 (Homo sapiens) (UniProt O95382); assay: Selectivity interaction (KinomeScan (DiscoverX)) EUB0000666a MAP3K6; conditions: at 10 µM
T1 sequence (whole entry): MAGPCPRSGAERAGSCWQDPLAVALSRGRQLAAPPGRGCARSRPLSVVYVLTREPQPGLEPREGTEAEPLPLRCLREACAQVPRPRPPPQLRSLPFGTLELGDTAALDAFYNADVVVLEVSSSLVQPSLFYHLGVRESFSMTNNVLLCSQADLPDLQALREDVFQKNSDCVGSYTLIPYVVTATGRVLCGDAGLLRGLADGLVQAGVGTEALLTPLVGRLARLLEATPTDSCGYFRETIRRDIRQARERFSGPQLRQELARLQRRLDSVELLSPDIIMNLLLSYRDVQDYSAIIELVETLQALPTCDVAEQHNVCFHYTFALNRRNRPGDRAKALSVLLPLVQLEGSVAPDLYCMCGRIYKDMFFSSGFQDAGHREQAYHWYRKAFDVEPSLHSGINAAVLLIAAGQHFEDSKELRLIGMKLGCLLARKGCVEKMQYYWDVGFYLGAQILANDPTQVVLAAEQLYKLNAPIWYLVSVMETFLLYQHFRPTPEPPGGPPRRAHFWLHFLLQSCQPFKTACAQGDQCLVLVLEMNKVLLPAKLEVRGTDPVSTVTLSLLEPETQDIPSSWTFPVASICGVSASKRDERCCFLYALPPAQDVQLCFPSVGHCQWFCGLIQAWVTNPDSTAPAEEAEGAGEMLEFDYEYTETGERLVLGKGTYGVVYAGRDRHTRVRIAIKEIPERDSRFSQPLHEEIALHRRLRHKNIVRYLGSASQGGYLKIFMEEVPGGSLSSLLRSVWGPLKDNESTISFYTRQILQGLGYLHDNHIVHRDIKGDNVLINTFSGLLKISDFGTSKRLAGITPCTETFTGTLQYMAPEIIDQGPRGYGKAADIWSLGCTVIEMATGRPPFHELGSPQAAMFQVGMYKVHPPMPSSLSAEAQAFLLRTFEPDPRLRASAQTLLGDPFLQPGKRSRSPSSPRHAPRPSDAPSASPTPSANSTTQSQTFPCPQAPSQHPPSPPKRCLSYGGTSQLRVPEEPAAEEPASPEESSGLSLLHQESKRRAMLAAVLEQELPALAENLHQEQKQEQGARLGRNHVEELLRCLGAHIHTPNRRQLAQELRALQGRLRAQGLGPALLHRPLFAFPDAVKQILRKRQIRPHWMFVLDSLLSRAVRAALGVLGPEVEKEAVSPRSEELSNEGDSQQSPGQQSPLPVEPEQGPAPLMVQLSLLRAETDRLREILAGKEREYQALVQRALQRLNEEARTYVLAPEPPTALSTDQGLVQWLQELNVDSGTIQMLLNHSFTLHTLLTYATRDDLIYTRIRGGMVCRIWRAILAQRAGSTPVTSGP

[2] = biological target: Ribosomal protein S6 kinase alpha-1 (Homo sapiens, UniProt Q15418); assay: Selectivity interaction (ActivX KiNativ screen (kinase selectivity in THP-1 cell lysates)) EUB0000639a RPS6KA1; assay type: subcellular; conditions: lysate, at 0.04 µM
Chain of Ribosomal protein S6 kinase alpha-1 (Q15418 whole entry): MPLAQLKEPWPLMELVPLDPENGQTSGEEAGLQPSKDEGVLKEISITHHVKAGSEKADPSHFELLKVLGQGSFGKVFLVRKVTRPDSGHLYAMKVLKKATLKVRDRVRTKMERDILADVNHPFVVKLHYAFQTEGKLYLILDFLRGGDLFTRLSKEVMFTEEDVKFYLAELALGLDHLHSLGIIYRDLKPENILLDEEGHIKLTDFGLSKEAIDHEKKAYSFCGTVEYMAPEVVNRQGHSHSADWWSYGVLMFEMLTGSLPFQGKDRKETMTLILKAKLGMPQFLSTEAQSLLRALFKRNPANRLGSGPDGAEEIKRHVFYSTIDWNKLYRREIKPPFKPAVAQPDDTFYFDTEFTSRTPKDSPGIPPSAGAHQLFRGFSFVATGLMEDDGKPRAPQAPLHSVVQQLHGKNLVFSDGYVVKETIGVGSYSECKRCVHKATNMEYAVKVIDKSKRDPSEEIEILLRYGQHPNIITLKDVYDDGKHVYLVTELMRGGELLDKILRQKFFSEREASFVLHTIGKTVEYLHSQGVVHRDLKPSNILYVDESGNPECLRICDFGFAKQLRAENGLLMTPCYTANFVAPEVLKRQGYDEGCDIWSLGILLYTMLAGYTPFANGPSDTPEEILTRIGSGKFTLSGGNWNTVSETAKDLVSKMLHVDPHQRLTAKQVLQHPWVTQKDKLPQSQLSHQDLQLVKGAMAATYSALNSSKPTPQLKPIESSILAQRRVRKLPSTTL

[3] = biological target: Serine/threonine-protein kinase RIO2 (Homo sapiens) (UniProt Q9BVS4); assay: Selectivity interaction (KinomeScan (DiscoverX)) EUB0000045b RIOK2
Chain of Serine/threonine-protein kinase RIO2 (Homo sapiens) (Q9BVS4 whole entry, looked up): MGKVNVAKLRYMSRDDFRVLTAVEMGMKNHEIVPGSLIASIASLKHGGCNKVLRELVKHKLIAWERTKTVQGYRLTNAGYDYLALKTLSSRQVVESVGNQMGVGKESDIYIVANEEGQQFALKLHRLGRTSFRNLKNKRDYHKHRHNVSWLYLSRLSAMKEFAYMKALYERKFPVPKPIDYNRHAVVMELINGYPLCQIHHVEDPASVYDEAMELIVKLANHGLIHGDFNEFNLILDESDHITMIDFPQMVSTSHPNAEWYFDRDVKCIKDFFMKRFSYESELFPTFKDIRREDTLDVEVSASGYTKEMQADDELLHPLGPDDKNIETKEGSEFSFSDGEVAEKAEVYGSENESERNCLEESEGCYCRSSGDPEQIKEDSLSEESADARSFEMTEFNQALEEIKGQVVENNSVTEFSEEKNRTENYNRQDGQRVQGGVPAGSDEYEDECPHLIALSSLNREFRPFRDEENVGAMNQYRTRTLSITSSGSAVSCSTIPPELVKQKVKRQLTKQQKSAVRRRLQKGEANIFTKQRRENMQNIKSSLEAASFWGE

[4] = biological target: T2, Tyrosine-protein kinase ZAP-70 (Homo sapiens) (UniProt P43403); assay: Selectivity interaction (Upstate Kinase Profiler service (Millipore)) EUB0000056c ZAP70; conditions: at 1 µM
T2 sequence (whole entry): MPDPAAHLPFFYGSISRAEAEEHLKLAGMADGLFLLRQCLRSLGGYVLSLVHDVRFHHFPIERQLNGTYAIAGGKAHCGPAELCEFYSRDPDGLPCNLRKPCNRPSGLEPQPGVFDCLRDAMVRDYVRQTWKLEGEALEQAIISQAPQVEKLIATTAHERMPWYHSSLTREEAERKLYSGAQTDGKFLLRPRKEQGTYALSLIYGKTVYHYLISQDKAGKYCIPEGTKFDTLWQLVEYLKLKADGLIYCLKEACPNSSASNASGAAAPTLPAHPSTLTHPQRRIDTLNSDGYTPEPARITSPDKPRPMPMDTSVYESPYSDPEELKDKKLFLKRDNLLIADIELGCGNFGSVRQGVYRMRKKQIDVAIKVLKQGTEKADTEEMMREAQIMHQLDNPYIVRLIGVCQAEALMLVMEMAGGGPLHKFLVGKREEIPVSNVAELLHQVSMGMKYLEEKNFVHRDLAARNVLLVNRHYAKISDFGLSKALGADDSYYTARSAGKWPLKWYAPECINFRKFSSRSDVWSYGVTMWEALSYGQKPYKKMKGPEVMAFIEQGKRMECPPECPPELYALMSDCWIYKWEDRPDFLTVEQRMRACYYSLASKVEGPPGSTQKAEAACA

[5] = biological target: Ribosomal protein S6 kinase alpha-3 (Homo sapiens, UniProt P51812); assay: Selectivity interaction (KinomeScan (DiscoverX)) EUB0000695a RPS6KA3; conditions: at 100 nM
Chain of Ribosomal protein S6 kinase alpha-3 (P51812 whole entry): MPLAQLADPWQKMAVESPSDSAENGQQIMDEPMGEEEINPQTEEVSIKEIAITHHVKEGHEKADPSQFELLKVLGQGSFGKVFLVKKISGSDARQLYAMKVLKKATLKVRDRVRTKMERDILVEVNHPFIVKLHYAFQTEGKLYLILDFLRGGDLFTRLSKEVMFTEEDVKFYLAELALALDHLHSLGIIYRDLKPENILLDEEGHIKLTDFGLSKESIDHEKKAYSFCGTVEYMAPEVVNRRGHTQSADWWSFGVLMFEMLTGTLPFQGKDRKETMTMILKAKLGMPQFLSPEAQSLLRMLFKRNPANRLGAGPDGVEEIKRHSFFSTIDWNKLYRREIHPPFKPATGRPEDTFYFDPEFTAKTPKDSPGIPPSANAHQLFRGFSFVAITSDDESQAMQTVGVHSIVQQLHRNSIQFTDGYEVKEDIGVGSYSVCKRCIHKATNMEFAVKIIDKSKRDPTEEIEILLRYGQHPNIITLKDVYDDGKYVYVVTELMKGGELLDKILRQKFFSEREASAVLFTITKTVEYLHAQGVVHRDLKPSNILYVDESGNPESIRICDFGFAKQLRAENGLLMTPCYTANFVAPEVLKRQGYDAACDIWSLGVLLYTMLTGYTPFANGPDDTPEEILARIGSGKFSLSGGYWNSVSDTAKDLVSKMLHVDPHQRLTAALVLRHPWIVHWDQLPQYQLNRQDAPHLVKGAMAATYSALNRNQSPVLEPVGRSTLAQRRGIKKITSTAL

[6] = biological target: T3, Inhibitor of nuclear factor kappa-B kinase subunit alpha (Homo sapiens) (UniProt O15111); assay: Selectivity interaction (Adapta Assay) EUB0001632a CHUK; conditions: at 10 µM
T3 sequence (whole entry): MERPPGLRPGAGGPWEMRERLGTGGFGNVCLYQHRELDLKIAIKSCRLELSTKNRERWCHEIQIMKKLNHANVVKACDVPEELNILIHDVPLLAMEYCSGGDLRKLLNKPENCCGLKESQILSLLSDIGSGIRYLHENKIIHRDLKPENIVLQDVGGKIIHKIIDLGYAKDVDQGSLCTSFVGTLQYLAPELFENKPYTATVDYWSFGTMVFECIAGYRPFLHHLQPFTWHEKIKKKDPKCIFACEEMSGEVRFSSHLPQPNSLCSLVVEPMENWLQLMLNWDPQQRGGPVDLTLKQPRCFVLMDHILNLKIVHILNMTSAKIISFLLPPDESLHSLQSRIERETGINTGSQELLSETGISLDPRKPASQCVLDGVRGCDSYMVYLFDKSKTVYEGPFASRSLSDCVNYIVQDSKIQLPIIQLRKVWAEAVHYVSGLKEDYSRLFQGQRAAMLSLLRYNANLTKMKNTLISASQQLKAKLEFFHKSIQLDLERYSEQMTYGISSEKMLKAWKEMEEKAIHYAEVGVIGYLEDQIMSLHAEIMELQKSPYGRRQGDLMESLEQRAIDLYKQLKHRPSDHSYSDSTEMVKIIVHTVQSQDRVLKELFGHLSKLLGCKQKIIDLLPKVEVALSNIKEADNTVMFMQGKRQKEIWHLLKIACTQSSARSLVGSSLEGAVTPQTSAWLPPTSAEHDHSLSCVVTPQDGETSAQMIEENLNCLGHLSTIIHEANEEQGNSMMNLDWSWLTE

[7] = biological target: Serine/threonine-protein kinase N1 (Homo sapiens, UniProt Q16512); assay: Selectivity interaction (ProQinase) EUB0000171b PKN1
Chain of Serine/threonine-protein kinase N1 (Q16512 2-942 limits assumed): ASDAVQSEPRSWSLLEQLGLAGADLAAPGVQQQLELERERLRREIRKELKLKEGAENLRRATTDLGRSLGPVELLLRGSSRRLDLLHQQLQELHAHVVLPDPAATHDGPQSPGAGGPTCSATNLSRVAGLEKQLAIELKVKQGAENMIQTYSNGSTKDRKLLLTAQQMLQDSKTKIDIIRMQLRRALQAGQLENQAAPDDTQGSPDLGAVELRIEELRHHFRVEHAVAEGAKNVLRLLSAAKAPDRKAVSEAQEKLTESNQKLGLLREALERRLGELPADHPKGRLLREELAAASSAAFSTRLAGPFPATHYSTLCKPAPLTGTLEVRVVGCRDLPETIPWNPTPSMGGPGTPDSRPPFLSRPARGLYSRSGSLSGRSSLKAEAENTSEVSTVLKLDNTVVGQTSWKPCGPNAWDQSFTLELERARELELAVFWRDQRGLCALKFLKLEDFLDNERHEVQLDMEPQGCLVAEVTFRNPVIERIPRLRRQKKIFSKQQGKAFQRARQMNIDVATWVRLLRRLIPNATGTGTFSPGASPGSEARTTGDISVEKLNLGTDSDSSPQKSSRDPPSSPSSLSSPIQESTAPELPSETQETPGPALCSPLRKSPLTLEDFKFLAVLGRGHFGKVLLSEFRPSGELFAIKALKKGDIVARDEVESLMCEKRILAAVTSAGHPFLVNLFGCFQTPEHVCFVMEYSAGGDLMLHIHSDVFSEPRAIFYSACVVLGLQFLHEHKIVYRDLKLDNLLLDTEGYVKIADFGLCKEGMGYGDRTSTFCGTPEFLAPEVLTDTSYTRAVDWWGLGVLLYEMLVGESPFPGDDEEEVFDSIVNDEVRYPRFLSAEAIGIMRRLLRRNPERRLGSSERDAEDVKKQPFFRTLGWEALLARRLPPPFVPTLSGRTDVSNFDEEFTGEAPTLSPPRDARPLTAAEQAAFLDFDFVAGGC

O=C(NOC[C@H](O)CO)c1ccc(F)c(F)c1Nc1ccc(I)cc1F
% of control [1]: 95%

CC[C@@H]1[C@H](F)C(=O)N[C@@H]1COc1nccc2cc(C(N)=O)c(OC)cc12 [ZIMLOVISERTIB]
% of inhibition [2]: 6.3%

C=CC(=O)Nc1cc(-n2c(=O)ccc3cnc4ccc(-c5ccc(NS(C)(=O)=O)cc5)cc4c32)ccc1C
% of control ([3]; at 1 µM): 66% | % of control ([3]; at 10 µM): 43%

Cc1ccc(-c2ccc3c(ccc4sc5c(c43)NC[C@@H](C)NC5=O)n2)cn1
% of inhibition [4]: -8%

Cc1cc(F)c(C(=O)Nc2cccc(-c3nncn3C(C)C)n2)cc1-n1cnc(C2CC2)c1
% of control [5]: 46%

Cn1cc(-n2cnc3c(NCc4nc5cc(Cl)c(Cl)cc5[nH]4)nc(N4CCOCC4)nc32)cn1
% of inhibition [6]: 13.7%

C=CC(=O)Nc1cccc(C(=O)Nc2ccc(Nc3cc(-c4[nH]c(SC)nc4C)ccn3)cc2)c1
% of control ([7]; at 1 µM): 100% | % of control ([7]; at 5 µM): 91%

Source: ChEMBL document CHEMBL5465560, “Selectivity Literature for EUbOPEN Chemogenomic Library” (2024)
